Experimental data published in PubChem BioAssay AID1963981 (Molecular Pharmacology Branch, DTP, NCI, 2024).
Each block holds one molecule with its values, some of them ahead of it.

System: 354836-022-R-J1-PDC multicell spheroid viability
Test: Anticancer human tumor 354836-022-R-J1-PDC patient-derived head and neck squamous cell carcinoma cell line growth inhibition [PI3K]
Settings: for viability, T/C: stronger effect = lower value
Procedure, shortened: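 Spheroid viability read-out. Co-cultures contained the tumor line plus HUVEC and human MSCs. Each agent was paired with a PI3K inhibitor (inavolisib, alpelisib, duvelisib, copanlisib) across half-log dilutions starting at clinical Cmax, or at 10 microM when Cmax was unknown.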
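Also: spheroids exposed to agents for seven days before the viability read.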

IC50 (curve of compound): > 10000 nM
Compound: CC(Cn1ccc(-c2ccc(C#N)c(Cl)c2)n1)NC(=O)c1cc(C(C)O)[nH]n1 (configuration not stated)
viability, T/C (compound 0.0316 µM): 108% [middle of 4 runs]
viability, T/C (compound 0.1 µM): 95.5% [middle of 4 runs]
viability, T/C (compound 0.316 µM): 112% [middle of 4 runs]
viability, T/C (compound 1 µM): 93.7% [middle of 4 runs]
viability, T/C (compound 3.16 µM): 99.2% [middle of 4 runs]
viability, T/C (compound 10 µM): 77.8% [middle of 4 runs]

IC50 (compound alone, run of 06/13/2023): 91.2 nM [middle of 8 runs]
Compound: COc1c(OCCCN2CCOCC2)ccc2c3n(c(=NC(=O)c4cnc(N)nc4)nc12)CCN3
viability, T/C (compound 0.00316 µM): 106% [middle of 8 runs]
viability, T/C (compound 0.01 µM): 97.6% [middle of 8 runs]
viability, T/C (compound 0.0316 µM): 82.5% [middle of 8 runs]
viability, T/C (compound 0.1 µM): 50.2% [middle of 8 runs]
viability, T/C (compound 0.316 µM): 11.2% [middle of 8 runs]
viability, T/C (compound 1 µM): 1.63% [middle of 8 runs]

IC50 (compound alone, run of 06/12/2023): 4.49 µM [middle of 8 runs]
Compound: Cc1nc(NC(=O)N2CCCC2C(N)=O)sc1-c1ccnc(C(C)(C)C(F)(F)F)c1 (configuration not stated)
viability, T/C (compound 0.0316 µM): 103% [middle of 8 runs]
viability, T/C (compound 0.1 µM): 100% [middle of 8 runs]
viability, T/C (compound 1 µM): 78.3% [middle of 8 runs]
viability, T/C (compound 3.16 µM): 59.7% [middle of 8 runs]
viability, T/C (compound 10 µM): 30.9% [middle of 8 runs]

IC50 (curve of first compound, second compound 0.00316 µM): > 100 nM
IC50 (curve of first compound, second compound 0.01 µM): > 100 nM
IC50 (curve of first compound, second compound 0.0316 µM): > 100 nM
IC50 (curve of first compound, second compound 0.1 µM): 14.9 nM
IC50 (curve of first compound, second compound 0.316 µM): < 0.316 nM
IC50 (curve of first compound, second compound 1 µM): < 0.316 nM
Compound: Cn1ncnc1[C@H]1c2n[nH]c(=O)c3cc(F)cc(c23)N[C@@H]1c1ccc(F)cc1 + COc1c(OCCCN2CCOCC2)ccc2c3n(c(=NC(=O)c4cnc(N)nc4)nc12)CCN3
viability, T/C (second compound 0.00316 µM, first compound 0.000316 µM): 98.6%
viability, T/C (second compound 0.00316 µM, first compound 0.001 µM): 102%
viability, T/C (second compound 0.00316 µM, first compound 0.00316 µM): 95.6%
viability, T/C (second compound 0.00316 µM, first compound 0.01 µM): 101%
viability, T/C (second compound 0.00316 µM, first compound 0.0316 µM): 98.2%
viability, T/C (second compound 0.00316 µM, first compound 0.1 µM): 88.5%
viability, T/C (second compound 0.01 µM, first compound 0.000316 µM): 93.8%
viability, T/C (second compound 0.01 µM, first compound 0.001 µM): 103%
viability, T/C (second compound 0.01 µM, first compound 0.00316 µM): 90.5%
viability, T/C (second compound 0.01 µM, first compound 0.01 µM): 93.1%
viability, T/C (second compound 0.01 µM, first compound 0.0316 µM): 95.3%
viability, T/C (second compound 0.01 µM, first compound 0.1 µM): 76.2%
viability, T/C (second compound 0.0316 µM, first compound 0.000316 µM): 76%
viability, T/C (second compound 0.0316 µM, first compound 0.001 µM): 77.7%
viability, T/C (second compound 0.0316 µM, first compound 0.00316 µM): 88%
viability, T/C (second compound 0.0316 µM, first compound 0.01 µM): 83.4%
viability, T/C (second compound 0.0316 µM, first compound 0.0316 µM): 83.1%
viability, T/C (second compound 0.0316 µM, first compound 0.1 µM): 69.8%
viability, T/C (second compound 0.1 µM, first compound 0.000316 µM): 50%
viability, T/C (second compound 0.1 µM, first compound 0.001 µM): 50.7%
viability, T/C (second compound 0.1 µM, first compound 0.00316 µM): 52%
viability, T/C (second compound 0.1 µM, first compound 0.01 µM): 57.5%
viability, T/C (second compound 0.1 µM, first compound 0.0316 µM): 57.8%
viability, T/C (second compound 0.1 µM, first compound 0.1 µM): 37%
viability, T/C (second compound 0.316 µM, first compound 0.000316 µM): 15.2%
viability, T/C (second compound 0.316 µM, first compound 0.001 µM): 16.3%
viability, T/C (second compound 0.316 µM, first compound 0.00316 µM): 14.5%
viability, T/C (second compound 0.316 µM, first compound 0.01 µM): 13.9%
viability, T/C (second compound 0.316 µM, first compound 0.0316 µM): 13.5%
viability, T/C (second compound 0.316 µM, first compound 0.1 µM): 7.08%
viability, T/C (second compound 1 µM, first compound 0.000316 µM): 2.45%
viability, T/C (second compound 1 µM, first compound 0.001 µM): 1.53%
viability, T/C (second compound 1 µM, first compound 0.00316 µM): 1.71%
viability, T/C (second compound 1 µM, first compound 0.01 µM): 2.18%
viability, T/C (second compound 1 µM, first compound 0.0316 µM): 2.36%
viability, T/C (second compound 1 µM, first compound 0.1 µM): 1.28%
